# Data reported in US6288091A, “Antiherpes virus compounds and methods for their preparation and use” (Boehringer Ingelheim Ltd., priority 1999, dated 2001).
# Tests used:
# HSV-1 strain F or KOS = assay: Inhibition of herpes simplex virus (HSV-1) replication in cell culture (BHK-21 cells, glycoprotein C ELISA); format: cell-based; settings: Human alphaherpesvirus 1, BHK-21, Group 1 Table 1 entries
# Description: B) Inhibition of Herpes Simplex Virus (HSV-1) Replication in Cell Culture
# BHK-21 cells clone 13 (ATCC CCL10) were incubated for two days in 850 cm^2 roller bottles (2×10^7 cells/bottle) with A-MEM medium (Gibco Canada Inc., Burlington, Ontario, Canada) supplemented with 8% (v/v) fetal bovine serum (FBS, Gibco Canada, Inc.). The cells were trypsinized and then 3,000 cells in 100 μL of fresh medium were transferred into each well of a 96-well microtiter plate. The cells were incubated at […] for a period of 3 days to reach a density of 50,000 cells per well. The cells were washed twice with 100 μL of α-MEM supplemented with 2% heat inactivated FBS and incubated for 1-2 hours in 100 μL of the same medium.
# Thereafter, the cells were infected with HSV-1 strain F or KOS (multiplicity of infection =0.05 PFU/cell) in 50 μL of α-MEM supplemented with 2% heat inactivated FBS. Following one hour of virus absorption at 37°, the medium was removed and the cells were washed with α-MEM supplemented with 2% heat inactivated FBS (2×100 μL). The cells were incubated with or without 100 μL of the appropriate concentration of test reagent in α-MEM medium supplemented with 2% heat inactivated FBS. After 24 hours of incubation at 37°, the extent of viral replication was determined by an ELISA assay; for instance, the following assay that detects the late glycoprotein C of HSV-1.
# Cells were fixed in the microtiter plate with 100 μL of 0.063% glutaraldehyde in phosphate buffered saline for 30 min at room temperature. The microtiter plate was then washed once with casein blocking solution and blocked with 200 μL of the same solution for one hour at room temperature. Thereafter, 100 μL of mAb C11 recognizing the glycoprotein C of HSV-1 (see E. Trybala et al., Journal of General Virology, 1994, 75, 743) was added to each well for two hours at room temperature. The plate was washed three times with phosphate buffered saline containing 0.05% polyoxyethylene (20) sorbitan monooleate. The cells were incubated with 100 μL of sheep anti-mouse IgG horseradish peroxidase for one hour at room temperature in the dark.
# The plate was washed three times with 200 μL of the above-noted phosphate buffer saline preparation, and then once with 0.1 M sodium citrate (pH 4.5). Thereafter, 100 μL of orthophenylenediamine dihydrochloride (OPD, Gibco, Canada Inc.) was added to each well. The plate was agitated on a microplate shaker for 30 min in the dark. Color development was monitored at 450 nm using a microplate spectrophotometer.
# SAS was used to calculate % inhibition of viral replication and to generate EC50 values.
# HSV-1 helicase-primase = target: T1, HSV-1 helicase-primase (Human herpesvirus 1, UniProt P10189+P10236); assay: HSV-1 DNA-dependent ATPase assay (inhibition of HSV-1 helicase-primase); format: biochemical; settings: Group 1 Table 1 entries
# T1 construct: made in house; host or cells: Sf21 insect cells triply infected with recombinant baculoviruses (UL5, UL8, UL52)
# Text: A) HSV-1 DNA-Dependent ATP Assay (an in Vitro Assay Based on the Inhibition of HSV-1 Helicase-primase).
# HSV-1 helicase-primase holoenzyme was produced in triply infected Sf21 cells using recombinant baculoviruses expressing the UL5, UL8 and UL52 helicase-primase subunits, as described by S. Dracheva et al., J. Biol. Chem. 1995, 270, 14148. The crude enzyme was purified by ammonium sulfate precipitation, Source 15Q® chromatography and Sephacryl® S-300 HR gel filtration (both purification systems can be obtained from Pharmacia Biotech Inc., Montreal, Quebec, Canada), see S. Dracheva et al., supra.
# The DNA-dependent ATPase assay, described by J. J. Crute et al., Nucleic Acids Res. 1988, 16, 6585, was modified and used to evaluate the capability of the compounds of Group 1-formula 1 to inhibit HSV-1 helicase-primase activity. The reaction mixtures (80 μL each) contained 40 mM 4-(2-hydroxyethyl)-1-piperazineethanesulfonic acid (HEPES, pH 7.5), 10% (v/v) glycerol, 5.5 mM MgCl2, 1 mM DL-dithiothreitol (DTT), 50 μg/mL acetylated bovine serum albumin, 3.3% (v/v) DMSO, 4 mM ATP, 25 μM single-stranded M13 DNA hybridized to double-tailed 68-mer oligonucleotide and 3 μg/mL HSV-1 helicase-primase. After incubation for 20 min at 34°, formation of inorganic phosphate from hydrolysis of ATP was monitored spectrophotometrically at 650 nm using acidic ammonium molybdate/malachite green reagent, P. A. Lanzetta et al., Anal. Biochem. 1979, 100, 95. DNA-dependent ATPase activity was calculated from the net absorbance change in the presence and absence of inhibition.
# T1 sequence (P10192 whole entry): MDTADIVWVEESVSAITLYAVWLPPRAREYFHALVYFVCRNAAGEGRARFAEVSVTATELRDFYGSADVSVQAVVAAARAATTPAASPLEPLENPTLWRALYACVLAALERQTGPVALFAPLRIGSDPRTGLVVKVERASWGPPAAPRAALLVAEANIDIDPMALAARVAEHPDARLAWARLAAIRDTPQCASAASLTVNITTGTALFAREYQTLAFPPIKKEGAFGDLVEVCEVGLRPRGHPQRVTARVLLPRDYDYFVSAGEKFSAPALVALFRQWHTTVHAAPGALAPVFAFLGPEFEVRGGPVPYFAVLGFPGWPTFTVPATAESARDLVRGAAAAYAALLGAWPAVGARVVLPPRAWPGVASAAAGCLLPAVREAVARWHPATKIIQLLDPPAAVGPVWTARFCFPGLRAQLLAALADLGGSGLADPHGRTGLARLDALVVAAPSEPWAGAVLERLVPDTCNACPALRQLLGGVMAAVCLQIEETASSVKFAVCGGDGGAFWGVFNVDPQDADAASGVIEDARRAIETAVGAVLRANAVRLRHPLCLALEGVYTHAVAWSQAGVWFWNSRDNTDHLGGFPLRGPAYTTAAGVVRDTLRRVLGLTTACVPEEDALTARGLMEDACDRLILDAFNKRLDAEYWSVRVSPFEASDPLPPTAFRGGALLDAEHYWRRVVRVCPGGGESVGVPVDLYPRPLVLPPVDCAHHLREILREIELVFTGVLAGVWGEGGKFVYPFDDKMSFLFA
# T1 sequence (P10236 whole entry): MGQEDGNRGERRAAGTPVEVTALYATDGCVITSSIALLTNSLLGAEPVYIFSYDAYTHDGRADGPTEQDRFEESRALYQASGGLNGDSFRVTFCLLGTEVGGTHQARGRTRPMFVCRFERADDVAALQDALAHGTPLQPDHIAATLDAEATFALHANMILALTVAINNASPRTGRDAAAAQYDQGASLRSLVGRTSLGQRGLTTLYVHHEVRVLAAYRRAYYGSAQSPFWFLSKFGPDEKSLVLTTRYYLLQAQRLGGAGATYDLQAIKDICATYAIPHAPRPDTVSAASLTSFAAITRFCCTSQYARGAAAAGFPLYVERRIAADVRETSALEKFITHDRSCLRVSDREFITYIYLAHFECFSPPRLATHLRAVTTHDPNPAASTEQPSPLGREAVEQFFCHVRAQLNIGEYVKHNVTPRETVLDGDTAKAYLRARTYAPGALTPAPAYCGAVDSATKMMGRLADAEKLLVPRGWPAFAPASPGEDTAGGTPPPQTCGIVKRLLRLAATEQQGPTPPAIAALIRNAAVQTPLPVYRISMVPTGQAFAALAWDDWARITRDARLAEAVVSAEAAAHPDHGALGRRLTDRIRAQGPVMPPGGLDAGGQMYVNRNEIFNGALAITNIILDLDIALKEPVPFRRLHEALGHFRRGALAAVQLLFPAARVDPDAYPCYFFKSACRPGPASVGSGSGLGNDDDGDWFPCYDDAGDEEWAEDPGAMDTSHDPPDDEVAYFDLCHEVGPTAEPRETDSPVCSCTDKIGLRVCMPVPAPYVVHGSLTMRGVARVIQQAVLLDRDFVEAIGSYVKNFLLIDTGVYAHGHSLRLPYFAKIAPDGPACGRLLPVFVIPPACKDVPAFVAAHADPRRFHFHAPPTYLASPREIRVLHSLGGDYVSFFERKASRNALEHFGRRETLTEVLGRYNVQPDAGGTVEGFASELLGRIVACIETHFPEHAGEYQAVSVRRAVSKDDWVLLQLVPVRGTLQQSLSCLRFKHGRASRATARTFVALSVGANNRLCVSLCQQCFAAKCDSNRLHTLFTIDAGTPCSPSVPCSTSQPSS
# T1 sequence (P10189 whole entry): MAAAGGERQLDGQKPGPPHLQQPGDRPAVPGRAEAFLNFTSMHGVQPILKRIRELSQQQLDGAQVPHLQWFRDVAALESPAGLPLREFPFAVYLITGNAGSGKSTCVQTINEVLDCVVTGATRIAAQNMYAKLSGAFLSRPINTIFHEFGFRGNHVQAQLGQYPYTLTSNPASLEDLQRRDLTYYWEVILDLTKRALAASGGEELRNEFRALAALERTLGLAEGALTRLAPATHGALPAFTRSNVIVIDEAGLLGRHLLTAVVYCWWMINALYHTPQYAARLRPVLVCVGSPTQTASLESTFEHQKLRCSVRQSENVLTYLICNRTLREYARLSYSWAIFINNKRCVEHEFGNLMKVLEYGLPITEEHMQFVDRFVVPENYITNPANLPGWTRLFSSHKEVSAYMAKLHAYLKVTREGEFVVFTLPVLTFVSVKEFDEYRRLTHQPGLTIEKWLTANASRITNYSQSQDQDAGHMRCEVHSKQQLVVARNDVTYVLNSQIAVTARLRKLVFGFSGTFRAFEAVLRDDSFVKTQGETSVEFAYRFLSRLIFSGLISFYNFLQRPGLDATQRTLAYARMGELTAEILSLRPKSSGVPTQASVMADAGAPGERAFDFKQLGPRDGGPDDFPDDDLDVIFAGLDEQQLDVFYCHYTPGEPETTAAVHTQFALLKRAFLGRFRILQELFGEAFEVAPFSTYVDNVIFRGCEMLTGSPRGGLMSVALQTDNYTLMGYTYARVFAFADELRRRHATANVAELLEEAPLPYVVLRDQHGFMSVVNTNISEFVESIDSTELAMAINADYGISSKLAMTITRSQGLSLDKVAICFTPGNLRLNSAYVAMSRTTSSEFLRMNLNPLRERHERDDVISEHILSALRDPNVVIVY
smiles,measurement,setting,value
Nc1nc(-c2ccc(NC(=O)CN(Cc3ccccc3)C(=O)N3CCOCC3)cc2)cs1 [Example 95],EC50,HSV-1 strain F or KOS,37 nM
Nc1nc(-c2ccc(NC(=O)CN(Cc3ccccc3)S(=O)(=O)N3CCOCC3)cc2)cs1 [Example 96],EC50,HSV-1 strain F or KOS,120 nM
CN(C)c1cccc2c(S(=O)(=O)N(CC(=O)Nc3ccc(-c4csc(N)n4)cc3)Cc3ccncc3)cccc12 [Example 99],IC50,HSV-1 helicase-primase,1600 nM
same,EC50,HSV-1 strain F or KOS,670 nM
CC(C)(C)OC(=O)N(CC(=O)Nc1ccc(-c2csc(N)n2)cc1)CC1CCCCC1 [Example 100],EC50,HSV-1 strain F or KOS,850 nM
Cc1ccccc1CN(CC(=O)Nc1ccc(-c2csc(N)n2)cc1)C(=O)c1ccncc1 [Example 102],EC50,HSV-1 strain F or KOS,11 nM
C[C@@H](c1ccccc1)N(CC(=O)Nc1ccc(-c2csc(N)n2)cc1)C(=O)NC(C)(C)C [Example 105],EC50,HSV-1 strain F or KOS,290 nM
Nc1nc(-c2ccc(NC(=O)CN(Cc3ccccc3Cl)C(=O)c3ccncc3)cc2)cs1 [Example 145],IC50,HSV-1 helicase-primase,390 nM
same,EC50,HSV-1 strain F or KOS,19 nM
Nc1nc(-c2ccc(NC(=O)CN(Cc3cccc(Cl)c3)C(=O)c3ccncc3)cc2)cs1 [Example 146],IC50,HSV-1 helicase-primase,150 nM
same,EC50,HSV-1 strain F or KOS,5 nM
Nc1nc(-c2ccc(NC(=O)CN(Cc3cccc(F)c3)C(=O)c3ccncc3)cc2)cs1 [Example 147],IC50,HSV-1 helicase-primase,350 nM
same,EC50,HSV-1 strain F or KOS,22 nM
COc1ccccc1CN(CC(=O)Nc1ccc(-c2csc(N)n2)cc1)C(=O)c1ccncc1 [Example 148],IC50,HSV-1 helicase-primase,380 nM
same,EC50,HSV-1 strain F or KOS,25 nM
COc1cccc(CN(CC(=O)Nc2ccc(-c3csc(N)n3)cc2)C(=O)c2ccncc2)c1 [Example 149],IC50,HSV-1 helicase-primase,450 nM
same,EC50,HSV-1 strain F or KOS,55 nM
COc1ccc(CN(CC(=O)Nc2ccc(-c3csc(N)n3)cc2)C(=O)c2ccncc2)cc1 [Example 150],IC50,HSV-1 helicase-primase,2000 nM
same,EC50,HSV-1 strain F or KOS,120 nM
Cc1cccc(CN(CC(=O)Nc2ccc(-c3csc(N)n3)cc2)C(=O)c2ccncc2)c1 [Example 151],IC50,HSV-1 helicase-primase,76 nM
same,EC50,HSV-1 strain F or KOS,11 nM
Cc1ccc(CN(CC(=O)Nc2ccc(-c3csc(N)n3)cc2)C(=O)c2ccncc2)cc1 [Example 152],IC50,HSV-1 helicase-primase,1600 nM
same,EC50,HSV-1 strain F or KOS,77 nM
Nc1nc(-c2ccc(NC(=O)CN(Cc3c(F)cccc3F)C(=O)c3ccncc3)cc2)cs1 [Example 153],IC50,HSV-1 helicase-primase,1900 nM
same,EC50,HSV-1 strain F or KOS,190 nM
Cc1cccc(CN(CC(=O)Nc2ccc(-c3csc(N)n3)cc2)C(=O)c2ccncc2)c1C [Example 154],IC50,HSV-1 helicase-primase,41 nM
same,EC50,HSV-1 strain F or KOS,5 nM
Cc1ccc(C)c(CN(CC(=O)Nc2ccc(-c3csc(N)n3)cc2)C(=O)c2ccncc2)c1 [Example 155],IC50,HSV-1 helicase-primase,200 nM
same,EC50,HSV-1 strain F or KOS,11 nM
Cc1cccc(C)c1CN(CC(=O)Nc1ccc(-c2csc(N)n2)cc1)C(=O)c1ccncc1 [Example 156],IC50,HSV-1 helicase-primase,3500 nM
same,EC50,HSV-1 strain F or KOS,420 nM
Cc1cc(C)cc(CN(CC(=O)Nc2ccc(-c3csc(N)n3)cc2)C(=O)c2ccncc2)c1 [Example 157],IC50,HSV-1 helicase-primase,40 nM
same,EC50,HSV-1 strain F or KOS,10 nM
Nc1nc(-c2ccc(NC(=O)CN(CCc3ccccn3)C(=O)c3ccncc3)cc2)cs1 [Example 158],IC50,HSV-1 helicase-primase,1800 nM
same,EC50,HSV-1 strain F or KOS,440 nM
Nc1nc(-c2ccc(NC(=O)CN(Cc3cccs3)C(=O)c3ccncc3)cc2)cs1 [Example 159],IC50,HSV-1 helicase-primase,1700 nM
same,EC50,HSV-1 strain F or KOS,210 nM
Nc1nc(-c2ccc(NC(=O)CN(CCc3cccs3)C(=O)c3ccncc3)cc2)cs1 [Example 160],IC50,HSV-1 helicase-primase,680 nM
same,EC50,HSV-1 strain F or KOS,51 nM
Nc1nc(-c2ccc(NC(=O)CN(Cc3cscn3)C(=O)c3ccncc3)cc2)cs1 [Example 161],IC50,HSV-1 helicase-primase,3400 nM
same,EC50,HSV-1 strain F or KOS,530 nM
Cc1nc(CN(CC(=O)Nc2ccc(-c3csc(N)n3)cc2)C(=O)c2ccncc2)cs1 [Example 162],IC50,HSV-1 helicase-primase,2500 nM
same,EC50,HSV-1 strain F or KOS,69 nM
Nc1nc(-c2ccc(NC(=O)CN(CCc3nccs3)C(=O)c3ccncc3)cc2)cs1 [Example 163],IC50,HSV-1 helicase-primase,2400 nM
same,EC50,HSV-1 strain F or KOS,680 nM
